Reference: publication PMC9323974, “Palladium(II) Complexes of Substituted Salicylaldehydes: Synthesis, Characterization and Investigation of Their Biological Profile” (Pharmaceuticals, 2022)

What was measured:
[1] = Reduction of hydrogen peroxide; conditions: compound 0.1 mM
Experimental: (§1) S1 Antioxidant biological assay
(§2) The antioxidant activity of the compounds was evaluated via their ability to scavenge in […]
(§3) vitro free radicals such as DPPH and ABTS and to reduce H2O2. […]
S1.3 Reduction of hydrogen peroxide
The ability of the compounds to reduce hydrogen peroxide (H2O2) was estimated according […]
to the method described in the literature [S2]. The reaction mixture contained 20 μL of each of the […]
tested compounds (0.1 mM) and 5 μL H 2O2 solution (40 mM) in phosphate buffer (50 mM, pH 7.4).
The absorbance was measured at 230 nm after 10 min. The antioxidant activity (reduction of […]

[2] = target: T1, HSA (Homo sapiens, UniProt P02768); experiment: Competitive HSA-fluorescence studies with warfarin and ibuprofen; format: binding
T1 construct: purchased Sigma-Aldrich Co
T1 sequence (P02768 25-609): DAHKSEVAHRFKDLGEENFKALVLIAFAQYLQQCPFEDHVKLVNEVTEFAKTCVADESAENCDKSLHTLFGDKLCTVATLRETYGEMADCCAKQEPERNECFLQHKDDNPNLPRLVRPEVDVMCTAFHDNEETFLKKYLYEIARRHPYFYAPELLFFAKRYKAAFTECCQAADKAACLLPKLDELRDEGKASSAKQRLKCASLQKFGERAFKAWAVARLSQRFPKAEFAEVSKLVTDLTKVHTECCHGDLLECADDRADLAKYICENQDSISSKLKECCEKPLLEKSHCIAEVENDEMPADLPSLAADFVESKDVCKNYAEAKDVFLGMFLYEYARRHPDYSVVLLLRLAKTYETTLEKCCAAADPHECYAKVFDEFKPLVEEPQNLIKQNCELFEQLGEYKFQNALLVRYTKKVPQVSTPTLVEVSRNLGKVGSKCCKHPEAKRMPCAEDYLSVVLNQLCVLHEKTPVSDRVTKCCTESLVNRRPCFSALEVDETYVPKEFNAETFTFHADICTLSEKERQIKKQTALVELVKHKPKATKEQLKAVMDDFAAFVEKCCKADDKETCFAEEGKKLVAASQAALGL

[3] = system: Bacillus subtilis ATCC 6633; experiment: MIC determination; format: cell-based; conditions: 24 h
Experimental: (§4) S2 Antibacterial activity
(§5) The antimicrobial activity of the compounds was evaluated by determining their respective MIC values towards two Gram–(–) (Escherichia coli NCTC 29212 (E. coli) and Xanthomonas campestris ATCC 1395 (X. campestris)) and two Gram–(+) (Staphylococcus aureus ATCC 6538 (S. aureus) and Bacillus subtilis ATCC 6633 (B. subtilis)) bacterial species. Cultures of these microbial strains were grown on a rich selective agar medium and stored at 4°C. The selective media used were Nutrient Agar or Broth for B. subtilis and S. aureus, Yeast Mold Agar or Broth for X. campestris and Luria Agar or Broth for E. coli. Cells picked from the surface of the stored cultures were used to initiate liquid pre–cultures of the same selective medium at an initial turbidity of roughly 1 McFarland unit. Pre–cultures were incubated for 24 h in a rotary shaking incubator and subsequently they were used to inoculate the test cultures used for the determination of MIC at an initial turbidity of 0.5 McFarland units. The test cultures consisted of Mueller –Hinton broth (Deben Diagnostics Ltd) containing different concentrations of the compounds.
(§6) Different concentrations were achieved as follows: the compounds were freshly dissolved in DMSO to a concentration of 1 mg mL–1 and they were diluted with DMSO, using the method of progressive double dilution. Therefore, working solutions with decreasing concentrations of the compounds under investigation were achieved. The working solutions were subsequently diluted to the final desired concentration by addition to the growth medium at a proportion of 2:98. MIC values were determined as the lowest concentrations of the tested compounds that inhibited visible growth of each respective organism after a 24 h incubation [ S3]. Bacterial growth was determined by measuring the turbidity of appropriately diluted cultures at 600 nm with reference to equally diluted sterile growth medium and the inhibition achieved was calculated by comparing the turbidity of each culture to the average of the turbidity of three non–inhibited cultures. All test cultures were grown in triplicates and for the determination of MIC, growth had to be inhibited in at least two cultures of the triplicate. Incubation temperature at all stages was 37°C except for X. campestris that was cultivated at 28°C [S4].

[4] = system: Escherichia coli NCTC 29212; experiment: MIC determination; format: cell-based; conditions: 24 h
Experimental: as §4, §5, §6

[5] = system: Staphylococcus aureus ATCC 6538; experiment: MIC determination; format: cell-based; conditions: 24 h
Experimental: as §4, §5, §6

[6] = system: Xanthomonas campestris ATCC 1395; experiment: MIC determination; format: cell-based; conditions: 24 h
Experimental: as §4, §5, §6

[7] = target: T2, BSA (Bos taurus, UniProt P02769); experiment: Competitive BSA-fluorescence studies with warfarin and ibuprofen; format: binding, bovine
T2 construct: purchased Sigma-Aldrich Co
T2 sequence (P02769 25-607): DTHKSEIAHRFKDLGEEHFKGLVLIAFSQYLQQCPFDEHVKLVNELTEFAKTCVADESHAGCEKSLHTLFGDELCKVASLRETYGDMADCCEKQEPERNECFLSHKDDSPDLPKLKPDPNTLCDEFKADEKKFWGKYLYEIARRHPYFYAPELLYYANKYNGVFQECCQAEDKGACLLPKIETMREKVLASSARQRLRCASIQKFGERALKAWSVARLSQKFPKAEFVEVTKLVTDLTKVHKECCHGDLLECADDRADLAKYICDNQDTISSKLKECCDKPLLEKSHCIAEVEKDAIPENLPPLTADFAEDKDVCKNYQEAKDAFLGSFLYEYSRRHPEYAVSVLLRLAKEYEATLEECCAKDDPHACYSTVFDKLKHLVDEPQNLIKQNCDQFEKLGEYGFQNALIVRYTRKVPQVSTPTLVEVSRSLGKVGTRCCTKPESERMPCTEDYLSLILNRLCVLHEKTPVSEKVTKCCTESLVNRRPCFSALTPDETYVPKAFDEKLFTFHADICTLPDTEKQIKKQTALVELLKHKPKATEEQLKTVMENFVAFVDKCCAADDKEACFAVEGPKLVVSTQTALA
Experimental: where n = the number of binding sites per albumin and K = the SA–binding constant. The K constant (M−1) is calculated from the slope in plots (ΔI/I0)/[Q] versus (ΔI/I0) and n is given by the ratio of y intercept to the slope [S9].
S4.2 Competitive SA–fluorescence studies with warfarin and ibuprofen
The competitive studies with warfarin or ibuprofen (site probes) [S10] were performed by tryptophan fluorescence quenching experiments using a fixed concentration of the BSA and site probes (3 μM) in buffer (containing 15 mM trisodium citrate and 150 mM NaCl at pH 7.0). The fluorescence emission spectra were recorded in the presence of increasing amounts of the compounds as quenchers with an excitation wavelength of 295 nm. The Scatchard equation (eq. 7) [S6] and plots were applied on the corrected SA–fluorescence emission spectra in order to determine the BSA–binding constant of the compounds in the presence of warfarin or ibuprofen.

[8] = DPPH radical scavenging; conditions: compound 0.1 mM
Experimental: as §1
The antioxidant activity of the compounds was evaluated via their ability to scavenge in
vitro free radicals such as DPPH and ABTS and to reduce H2O2. All the experiments were carried
S1.1 Determination of the reducing activity of the stable radical DPPH
To an ethanolic solution of DPPH (0.1 mM) an equal volume solution of the compounds
(0.1 mM) in ethanol was added. Absolute ethanol was also used as control solution. The absorbance
at 517 nm was recorded at room temperature after 30 and 60 min, in order to examine the possible
existence of a potential time–dependence of the DPPH radical scavenging activity [S1]. The DPPH–
scavenging activity of the compounds was expressed as the percentage reduction of the absorbance
values of the initial DPPH solution (DPPH%). NDGA and BHT were used as reference compounds. […]

[9] = ABTS radical cation scavenging; conditions: compound 0.1 mM
Experimental: as §1, §2, §3
S1.2 Assay of radical cation ABTS–scavenging activity
The ABTS assay was performed to determine the activity of the compounds to scavenge the […]
radical cation ABTS. Initially, a water solution of ABTS was prepared (2 mM). ABTS radical cation […]
(ABTS+·) was produced by the reaction of ABTS stock solution with potassium persulfate (0.17 […]
mM) and the mixture was stored in the dark at room temperature for 12–16 h before its use. The […]
ABTS was oxidized incompletely because the stoichiometric reaction ratio of ABTS and potassium […]
persulfate is 1:0.5. The absorbance became maximal and stable only after more than 6 h of reaction […]
although the oxidation of the ABTS started immediately. The radical was stable in this form for […]
more than 2 days when allowed to stand in the dark at room temperature. Afterwards, the ABTS+· […]
solution was diluted in ethanol to an absorbance of 0.70 at 734 nm and 10 μL of diluted compounds or standards (0.1 mM) in DMSO were added. The absorbance was recorded out exactly 1 min after […]
initial mixing [S1]. The ABTS radical scavenging activity was expressed as the percentage inhibition of the absorbance of the initial ABTS solution (ABTS%). […]

[10] = drug site I (warfarin) vs II (ibuprofen)

## COc1ccc(C=O)c([O-])c1.COc1ccc(C=O)c([O-])c1.[Pd+2] [Complex 5, [Pd(4-OMe-salo)2]]
[1]
  H2O2%: 58.38 ± 0.54%
[2]; [10]
  HSA drug site preference: did not seem to show firmly a selectivity
[2]; ibuprofen
  HSA-binding constant K, Marker: Ibuprofen: 1.45 (±0.17) × 10^4 M^−1
[2]; no marker
  HSA-binding constant K, No Marker: 3.56 (±0.12) × 10^5 M^−1
[2]; warfarin
  HSA-binding constant K, Marker: Warfarin: 1.00 (±0.18) × 10^5 M^−1
[3]
  MIC B. subtilis: 100 µg/mL
[3]; value in parentheses, read-out: MIC B. subtilis
  MIC: 245 µM
[4]
  MIC E. coli: 100 µg/mL
[4]; value in parentheses, read-out: MIC E. coli
  MIC: 245 µM
[5]
  MIC S. aureus: 100 µg/mL
[5]; value in parentheses, read-out: MIC S. aureus
  MIC: 245 µM
[6]
  MIC X. campestris: 100 µg/mL
[6]; value in parentheses
  MIC X. campestris: 245 µM
[7]; [10]
  BSA drug site preference: drug site II
[7]; ibuprofen 3 μM
  BSA-binding constant K, Marker: Ibuprofen: 6.52 (±0.46) × 10^4 M^−1
[7]; no marker
  BSA-binding constant K, No Marker: 9.18 (±0.27) × 10^5 M^−1
[7]; warfarin 3 μM
  BSA-binding constant K, Marker: Warfarin: 1.46 (±0.14) × 10^5 M^−1
[8]; 30 min
  DPPH% (30 min): 2.29 ± 0.36%
[8]; 60 min
  DPPH% (60 min): 3.00 ± 0.25%
[9]
  ABTS%: 96.66 ± 0.46%
